Assay: xn = mol fraction of the nth substance listed, in the solute-free solvent

CC(=O)Oc1cccc2c1C(=O)c1c(OC(C)=O)cc(C(=O)O)cc1C2=O + CCOC(C)=O + CCO
solubility (g/100 g solution)
Conditions	273.15 K	278.15 K	283.15 K	288.15 K	293.15 K	298.15 K	303.15 K	308.15 K	313.15 K
x2 = 0.05491	0.00668	0.0091	0.0121	0.016	0.0207	0.0262	0.0328	0.04	0.0477
x2 = 0.1156	0.00776	0.0107	0.0144	0.0188	0.0241	0.0303	0.0382	0.0464	0.0564
x2 = 0.1831	0.015	0.0183	0.022	0.0265	0.0324	0.0391	0.0465	0.0555	0.0662
x2 = 0.2585	0.0202	0.0259	0.0317	0.0381	0.045	0.0534	0.0632	0.0734	0.0846
x2 = 0.3434	0.0268	0.0331	0.0402	0.0487	0.0574	0.067	0.078	0.0898	0.103
x2 = 0.4396	0.033	0.0398	0.0471	0.0563	0.0659	0.0773	0.0893	0.103	0.118
x2 = 0.5496	0.0337	0.0411	0.0496	0.0593	0.0698	0.0813	0.0934	0.109	0.125
x2 = 0.6765	0.0349	0.0419	0.0506	0.0609	0.0723	0.0849	0.0975	0.112	0.127
x2 = 0.8247	0.0222	0.0276	0.0334	0.0401	0.048	0.0562	0.0655	0.0763	0.087

O=C1CCC(C(=O)N2CSCC2C(=O)O)N1 (stereo unspecified) + CO + CC(C)=O
solubility (g/100 g solution)
Conditions	278.15 K	283.15 K	288.15 K	293.15 K	298.15 K	303.15 K	308.15 K	313.15 K	318.15 K	323.15 K
x2 = 0.1676	0.03	0.0418	0.06	0.08	0.115	0.159	0.227	0.34	0.497	0.708
x2 = 0.3118	0.045	0.0699	0.101	0.147	0.241	0.346	0.532	0.773	1.12	1.54
x2 = 0.4372	0.0669	0.0956	0.145	0.224	0.317	0.432	0.62	–	1.24	1.72
x2 = 0.5471	0.74	0.834	0.94	1.08	1.19	1.33	1.48	1.67	1.88	2.12
x2 = 0.6444	0.813	0.929	1.04	1.2	1.37	1.58	1.81	2.07	2.37	2.73
x2 = 0.7311	0.964	1.09	1.21	1.38	1.56	1.76	1.99	2.24	2.54	2.94
x2 = 0.8087	1.07	1.14	1.29	1.48	1.69	1.92	2.19	2.49	2.82	3.21
x2 = 0.8788	1.02	1.15	1.28	1.48	1.69	1.92	2.18	2.49	2.81	3.18
x2 = 0.9422	0.998	1.13	1.25	1.42	1.64	1.87	2.14	2.43	2.77	3.13

Nc1cccc2ccncc12 + CC(C)O + O
solubility (g/100 g solution)
Conditions	278.15 K	283.15 K	288.15 K	293.15 K	298.15 K	303.15 K	308.15 K	313.15 K	318.15 K	323.15 K
x2 = 0.03225	0.0706	0.0813	0.0925	0.109	0.123	0.142	0.165	0.191	0.218	0.252
x2 = 0.06974	0.141	0.163	0.184	0.215	0.244	0.279	0.323	0.372	0.424	0.489
x2 = 0.1139	0.235	0.271	0.306	0.357	0.405	0.463	0.534	0.617	0.702	0.808
x2 = 0.1666	0.339	0.393	0.445	0.519	0.59	0.676	0.78	0.902	1.03	1.18
x2 = 0.2307	0.393	0.466	0.559	0.658	0.767	0.883	1.02	1.18	1.36	1.58
x2 = 0.3103	0.5	0.587	0.696	0.819	0.952	1.09	1.26	1.47	1.68	1.95
x2 = 0.4117	0.573	0.687	0.826	0.98	1.13	1.3	1.5	1.75	2.02	2.35
x2 = 0.5454	0.633	0.765	0.915	1.08	1.25	1.46	1.7	1.97	2.3	2.69
x2 = 0.7297	0.576	0.73	0.906	1.1	1.31	1.58	1.84	2.16	2.51	2.94

NC(Cc1c[nH]c2ccccc12)C(=O)O (stereo unspecified) + O + CO
solubility (g/100 g solution)
Conditions	288.15 K	293.15 K	298.15 K	303.15 K	308.15 K
x2 = 0.1908	0.556	0.608	0.684	0.776	0.875
x2 = 0.3955	0.677	0.741	0.831	0.94	1.06
x2 = 0.595	0.827	0.902	1.01	1.14	1.28
x2 = 0.7962	1.02	1.11	1.23	1.38	1.56

Cc1ccc2cc(Br)ccc2n1 + CN(C)C=O + O
solubility (g/100 g solution)
Conditions	278.15 K	283.15 K	288.15 K	293.15 K	298.15 K	303.15 K	308.15 K	313.15 K	318.15 K	323.15 K
x2 = 0.02666	0.101	0.115	0.132	0.15	0.17	0.192	0.22	0.251	0.284	0.323
x2 = 0.05806	0.422	0.471	0.529	0.591	0.66	0.737	0.832	0.936	1.05	1.18
x2 = 0.09556	0.867	0.964	1.07	1.19	1.32	1.47	1.66	1.86	2.08	2.34
x2 = 0.1412	1.17	1.3	1.45	1.61	1.79	2	2.27	2.55	2.86	3.23
x2 = 0.1978	1.23	1.39	1.57	1.77	1.98	2.23	2.52	2.87	3.25	3.69
x2 = 0.27	1.27	1.43	1.63	1.85	2.11	2.39	2.74	3.13	3.57	4.1
x2 = 0.3652	1.38	1.58	1.8	2.04	2.31	2.62	2.99	3.45	3.97	4.61
x2 = 0.4965	1.52	1.77	2.05	2.31	2.62	3.01	3.5	4.08	4.7	5.46
x2 = 0.6893	1.67	1.91	2.2	2.61	2.99	3.44	3.98	4.63	5.36	6.25

CC(=O)Oc1cccc2c1C(=O)c1c(OC(C)=O)cc(C(=O)O)cc1C2=O + CC#N + CCO
solubility (g/100 g solution)
Conditions	273.15 K	278.15 K	283.15 K	288.15 K	293.15 K	298.15 K	303.15 K	308.15 K	313.15 K
x2 = 0.1109	0.00681	0.00922	0.0124	0.0163	0.0211	0.0275	0.0344	0.0422	0.0532
x2 = 0.2191	0.0086	0.0114	0.0156	0.0201	0.0251	0.0316	0.0396	0.0497	0.0623
x2 = 0.3248	0.0151	0.02	0.0259	0.032	0.0393	0.0474	0.0557	0.0657	0.0756
x2 = 0.428	0.0245	0.0312	0.039	0.0468	0.0553	0.0655	0.0782	0.0921	0.108
x2 = 0.5288	0.0313	0.0399	0.0509	0.0631	0.0754	0.0896	0.105	0.121	0.139
x2 = 0.6273	0.0353	0.0455	0.0574	0.0703	0.0834	0.0991	0.114	0.13	0.148
x2 = 0.7236	0.0286	0.0372	0.048	0.0598	0.0714	0.0842	0.098	0.113	0.129
x2 = 0.8178	0.0226	0.029	0.0374	0.0457	0.0538	0.0633	0.0742	0.0857	0.101
x2 = 0.9099	0.0216	0.0259	0.0322	0.0392	0.0467	0.0549	0.0647	0.0747	0.0869

Cc1ccc2cc(Br)ccc2n1 + CCO + O
solubility (g/100 g solution)
Conditions	278.15 K	283.15 K	288.15 K	293.15 K	298.15 K	303.15 K	308.15 K	313.15 K	318.15 K	323.15 K
x2 = 0.04165	0.0289	0.0336	0.0393	0.0455	0.0528	0.0607	0.0707	0.0816	0.0939	0.108
x2 = 0.08908	0.0673	0.0777	0.0902	0.103	0.119	0.137	0.158	0.181	0.207	0.237
x2 = 0.1436	0.119	0.137	0.159	0.181	0.209	0.239	0.276	0.315	0.359	0.411
x2 = 0.2068	0.176	0.203	0.234	0.267	0.308	0.354	0.408	0.466	0.53	0.607
x2 = 0.2812	0.218	0.26	0.304	0.347	0.4	0.46	0.535	0.61	0.695	0.798
x2 = 0.3698	0.266	0.313	0.373	0.43	0.501	0.579	0.667	0.762	0.873	1.01
x2 = 0.4772	0.308	0.37	0.442	0.521	0.603	0.705	0.819	0.935	1.07	1.24
x2 = 0.6101	0.356	0.425	0.505	0.593	0.693	0.812	0.948	1.09	1.27	1.47
x2 = 0.7788	0.399	0.477	0.569	0.67	0.785	0.925	1.08	1.25	1.44	1.66

From the CheMixHub drug solubility set
